Assays:
[1] = test system: H3K9me2 in MDA-MB-231 cells; assay: MDA-MB-231 H3K9me2 in-cell western assay (EHMT2 ICW); assay type: cell-based; details: Homo sapiens, Table 3A, read-out: ICW (IC50 μM)
Source text: MDA-MB-231 cell line was purchased from ATCC (Manassas, Va., USA). RPMI/Glutamax medium, Penicillin-Streptomycin, Heat Inactivated Fetal Bovine Serum, and D-PBS were purchased from Life Technologies (Grand Island, N.Y., USA). Odyssey blocking buffer, 800 CW goat anti-mouse IgG (H+L) antibody, and Licor Odyssey Infrared Scanner were purchased from Licor Biosciences, Lincoln, Nebr., USA. H3K9me2 mouse monoclonal antibody (Cat #1220) was purchased from Abcam (Cambridge, Mass., USA). 16% Paraformaldehyde was purchased from Electron Microscopy Sciences, Hatfield, Pa., USA). MDA-MB-231 cells were maintained in complete growth medium (RPMI supplemented with 10% v/v heat inactivated fetal bovine serum) and cultured at 37° C. under 5% C02. UNC0638 was purchased from Sigma-Aldrich (St. Louis, Mo., USA).
General Procedure for MDA-MB-231 HEK9me2 in-Cell Western Assay.
Compound (100 nL) was added directly to 384-well cell plate. MDA-MB-231 cells (ATCC) were seeded in assay medium (RPMI/Glutamax supplemented with 10% v/v heat inactivated fetal bovine serum and 1% Penicillin/Streptomycin, Life Technologies) at a concentration of 3,000 cells per well to a Poly-D-Lysine coated 384-well cell culture plate with 50 μL per well. Plates were incubated at 37° C., 5% CO2 for 48 hours (BD Biosciences 356697). […] After the incubation, 50 μL per well of 8% paraformaldehyde (Electron Microscopy Sciences) in PBS was added to the plates and incubated at room temperature for 20 minutes. Plates were transferred to a Biotek 406 plate washer and washed 2 times with 100 μL per well of wash buffer (1×PBS containing 0.3% Triton X-100 (v/v)). Next, 60 μL per well of Odyssey blocking buffer (Licor Biosciences) was added to each plate and incubated for 1 hour at room temperature. Blocking buffer was removed and 20 μL of monoclonal primary antibody α-H3K9me2 (Abcam) diluted 1:800 in Odyssey buffer with 0.1% Tween 20 (v/v) were added and plates were incubated overnight (16 hours) at 4° C. Plates were washed 5 times with 100 μL per well of wash buffer. Next 20 μL per well of secondary antibody was added (1:500 800 CW donkey anti-mouse IgG (H+L) antibody (Licor Biosciences), 1:1000 DRAQ5 (Cell Signaling Technology) in Odyssey buffer with 0.1% Tween 20 (v/v)) and incubated for 1 hour at room temperature. The plates were washed 5 times with 100 μL per well wash buffer then 2 times with 100 μL per well of water. Plates were allowed to dry at room temperature then imaged on a Licor Odyssey Infrared Scanner (Licor Biosciences) which measured integrated intensity at 700 nm and 800 nm wavelengths. Both 700 and 800 channels were scanned.
First, the ratio for each well was determined by:
Each plate included fourteen control wells of DMSO only treatment (Minimum Inhibition) as well as fourteen control wells (background wells) for maximum inhibition treated with control compound UNC0638 (Background wells).
The average of the ratio values for each well was calculated and used to determine the percent inhibition for each test well in the plate. Control compound was serially diluted three-fold in DMSO for a total of 10 test concentrations beginning at 1 μM. Percent inhibition was calculated as: […]
IC50 curves were generated using triplicate wells per concentration of compound. The IC50 is the concentration of compound at which measured methylation is inhibited by 50% as interpolated from the dose response curves. IC50 values were calculated using a non-linear regression (variable slope-four parameter fit model) with by the following formula:
where Top is fixed at 100% and Bottom is fixed to 0%, [I]=concentration of inhibitor, IC50=half maximal inhibitory concentration and n=Hill Slope.

human EHMT2 913-1193 = target: T1, human EHMT2 913-1193 (Homo sapiens, UniProt Q96KQ7); assay: EHMT2 enzyme assay on histone peptide substrate; assay type: biochemical; details: Table 3A; histone H3 1-15 peptide, balanced conditions; read-out: EHMT2 (IC50 μM)
T1 construct: recombinant purified human EHMT2 913-1193, Viva; purchased Viva
T1 sequence (Q96KQ7 913-1193): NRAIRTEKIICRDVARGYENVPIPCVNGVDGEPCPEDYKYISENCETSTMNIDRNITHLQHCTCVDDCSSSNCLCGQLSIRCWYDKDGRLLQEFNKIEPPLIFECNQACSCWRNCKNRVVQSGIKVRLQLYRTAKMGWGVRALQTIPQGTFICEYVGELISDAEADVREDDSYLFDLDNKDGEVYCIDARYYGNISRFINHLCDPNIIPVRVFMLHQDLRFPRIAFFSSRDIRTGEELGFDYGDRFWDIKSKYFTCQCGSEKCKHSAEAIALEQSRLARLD
Source text: Recombinant purified human EHMT2 913-1193 ([…]) synthesized by Viva was used for all experiments. Biotinylated histone peptides were synthesized by Biopeptide and HPLC-purified to >95% purity. Streptavidin Flashplates and seals were purchased from PerkinElmer and 384 Well V-bottom Polypropylene Plates were from Greiner. ^3H-labeled S-adenosylmethionine (^3H-SAM) was obtained from American Radiolabeled Chemicals with a specific activity of 80 Ci/mmol. Unlabeled SAM and S-adenosylhomocysteine (SAH) were obtained from American Radiolabeled Chemicals and Sigma-Aldrich respectively. Flashplates were washed in a Biotek ELx-405 with 0.1% Tween. 384-well Flashplates and 96-well filter binding plates were read on a TopCount microplate reader (PerkinElmer). Compound serial dilutions were performed on a Freedom EVO (Tecan) and spotted into assay plates using a Thermo Scientific Matrix PlateMate (Thermo Scientific). Reagent cocktails were added by Multidrop Combi (Thermo Scientific).
10-point curves of test compounds were made on a Freedom EVO (Tecan) using serial 3-fold dilutions in DMSO, beginning at 2.5 mM (final top concentration of compound was […] and the DMSO was 2%). A 1 μL aliquot of the inhibitor dilution series was spotted in a polypropylene 384-well V-bottom plate (Greiner) using a Thermo Scientific Matrix PlateMate (Thermo Scientific). The 100% inhibition control consisted of 1 mM final concentration of the product inhibitor S-adenosylhomocysteine (SAH, Sigma-Aldrich). Compounds were incubated for 30 minutes with 40 μL per well of 0.031 nM EHMT2 (recombinant purified human EHMT2 913-1193, Viva) in 1× assay buffer (20 mM Bicine [pH 7.5], 0.002% Tween 20, 0.005% Bovine Skin Gelatin and 1 mM TCEP). 10 μL per well of substrate mix comprising assay buffer, ^3H-SAM (^3H-labeled S-adenosylmethionine, American Radiolabeled Chemicals, specific activity of 80 Ci/mmol), unlabeled SAM (American Radiolabeled Chemicals), and peptide representing histone H3 residues 1-15 containing C-terminal biotin (appended to a C-terminal amide-capped lysine, synthesized by Biopeptide and HPLC-purified to greater than 95% purity) were added to initiate the reaction (both substrates were present in the final reaction mixture at their respective Km values, an assay format referred to as “balanced conditions”). Reactions were incubated for 60 minutes at room temperature and quenched with 10 μL per well of 400 μM unlabeled SAM, then transferred to a 384-well streptavidin Flashplate (PerkinElmer) and washed in a Biotek ELx-405 well washer with 0.1% Tween after 60 minutes. 384-well Flashplates were read on a TopCount microplate reader (PerkinElmer).

| SMILES | IC50 [1] [µM] | IC50 (human EHMT2 913-1193) [µM] |
| --- | --- | --- |
| CNC1=Nc2cc(-n3cc([C@H]4CCCN4C)nn3)c(Cl)cc2C12CCC2 [Compound A52R] | 0.01 to 0.1 | 0.01 to 0.1 |
| CNC1=Nc2cc(-n3cc4c(n3)CCCN(C)C4)c(Cl)cc2C12CCC2 [Compound A68] | < 0.01 | < 0.01 |
| CNC1=Nc2cc(-c3[nH]c4cnccc4c3C)c(Cl)cc2C12CCC2 [Compound A45] | 0.01 to 0.1 | < 0.01 |
| CNc1cc(C)nc(Nc2ccc(OC)c(-n3ncc4c3CCCNC4=O)c2F)n1 [Compound A63] | – | > 1 |
| CNCc1cn(-c2cc3c(cc2Cl)C2(CCC2)C(NC)=N3)cn1 [Compound A48] | > 1 | > 1 |
| CNc1cc(C)nc(Nc2ccc(OC)c(-n3cc4c(n3)CCCN(C)C4)c2F)n1 [Compound A66] | – | < 0.01 |
| CNC1=Nc2cc(-c3cc4ccncc4[nH]3)c(Cl)cc2C12CCC2 [Compound A44] | 0.1 to 1 | 0.01 to 0.1 |
| CNC1=Nc2cc(-n3cc4c(n3)CCCNC4)c(OC)cc2C12CCC2 [Compound A70] | < 0.01 | < 0.01 |

Other lines, results leading:

| IC50 [1] [µM] | IC50 (human EHMT2 913-1193) [µM] | SMILES |
| --- | --- | --- |
| 0.1 to 1 | < 0.01 | CNC1=Nc2cc(-n3cc([C@H]4CCCN4C)nn3)c(OC)cc2C12CCC2 [Compound A59R] |
| 0.01 to 0.1 | < 0.01 | CNc1cc(C)nc(Nc2ccc(OC)c(-n3ncc4c3CCCNC4)c2F)n1 [Compound A62] |
| < 0.01 | < 0.01 | CNC1=Nc2cc(-n3cc4c(n3)CCCNC4)c(Cl)cc2C12CCC2 [Compound A51] |
| 0.1 to 1 | 0.01 to 0.1 | CNCc1cn(-c2cc3c(cc2OC)C2(CCC2)C(NC)=N3)cn1 [Compound A47] |
| 0.01 to 0.1 | < 0.01 | CCN1CCCc2nn(-c3cc4c(cc3Cl)C3(CCC3)C(NC)=N4)cc2C1 [Compound A69] |

Reference: patent publication US20200317642A1, “AMINE-SUBSTITUTED HETEROCYCLIC COMPOUNDS AS EHMT2 INHIBITORS AND DERIVATIVES THEREOF” (Epizyme, Inc., priority 2017, published 2020)
